What was measured:
Assay type in all cases: cell-based
MDA-MB-231 = assay: cell proliferation, tumor derived cell lines; settings: Homo sapiens, Breast, 72 or 96 hours exposure
Description: (§1) Thirty-seven cancer derived cell lines are used (BT474, MDA-MB-361, MDA-MB-453, SKBr3, T47D, MCF7, MDA-MB-231, MDA-MB-468, SK-MEL-5, A375, MALME-3M, SK-MEL-28, WM266.4, RPMI8226, U266, BE, Colo205, HCT116, HT29, MAWI, RKO, U87MG, HN5, RPMI-8226, A549, MV522, NCI-H1299, NCI-H460, 41M, A2780, CHI, NCI-N87, SKOV3, PC3, MO7e, GIST882 and Baf3) to test the effect of 5-(2,4-Dihydroxy-5-isopropyl-phenyl)-4-(4-morpholin-4-ylmethyl-phenyl)-isoxazole-3-carboxylic acid ethylamide. Cell lines are commercially available from American Type Culture Collection (ATCC). These cell lines cover the following 12 cancer or tumor types: breast, melanoma, multiple myeloma (MM), colon, glioblastoma, head & neck, leukemia, lung, ovarian, prostate, stomach and gastrointestinal stromal tumour (GIST). After division and medium change, cells from stock culture are seeded on cell plates and cultured for about 18 hours to allow cell growth and attachment before starting the assay. On the first day of the assay, 5-(2,4-Dihydroxy-5-isopropyl-phenyl)-4-(4-morpholin-4-ylmethyl-phenyl)-isoxazole-3-carboxylic acid ethylamide is added to the medium at various concentrations up to […]. Cells are cultured up to 72 or 96 hours and cell proliferation is determined using commercially available cell proliferation kits.
(§2) The cells were continually exposed to 5-(2,4-Dihydroxy-5-isopropyl-phenyl)-4-(4-morpholin-4-ylmethyl-phenyl)-isoxazole-3-carboxylic acid ethylamide for either 72 or 96 hours and cell growth was determined by commercially available kits based on either SRB, Alamar blue, methylene blue or WST-1 methods.

41M = assay: cell proliferation, tumor derived cell lines; settings: Homo sapiens, Ovarian, 72 or 96 hours exposure
Description: as §1, §2

Baf3 = assay: cell proliferation, tumor derived cell lines; settings: Mus musculus, Gastrointestinal stromal tumour (GIST), 72 or 96 hours exposure
Description: as §1, §2

MDA-MB-468 = assay: cell proliferation, tumor derived cell lines; settings: Homo sapiens, Breast, 72 or 96 hours exposure
Description: as §1, §2

A375 = assay: cell proliferation, tumor derived cell lines; settings: Homo sapiens, A-375, Melanoma, 72 or 96 hours exposure
Description: as §1, §2

RPMI-8226 = assay: cell proliferation, tumor derived cell lines; settings: Homo sapiens, Leukemia, 72 or 96 hours exposure
Description: as §1, §2

MAWI = assay: cell proliferation, tumor derived cell lines; settings: Colon, 72 or 96 hours exposure
Description: as §1, §2

SK-MEL-5 = assay: cell proliferation, tumor derived cell lines; settings: Homo sapiens, Melanoma, 72 or 96 hours exposure
Description: as §1, §2

NCI-H1299 = assay: cell proliferation, tumor derived cell lines; settings: Homo sapiens, Lung, 72 or 96 hours exposure
Description: as §1, §2

HCT116 = assay: cell proliferation, tumor derived cell lines; settings: Homo sapiens, HCT-116, Colon, 72 or 96 hours exposure
Description: as §1, §2

T47D = assay: cell proliferation, tumor derived cell lines; settings: Homo sapiens, Breast, 72 or 96 hours exposure
Description: as §1, §2

RKO = assay: cell proliferation, tumor derived cell lines; settings: Homo sapiens, Colon, 72 or 96 hours exposure
Description: as §1, §2

RPMI8226 = assay: cell proliferation, tumor derived cell lines; settings: Homo sapiens, RPMI-8226, Multiple myeloma (MM), 72 or 96 hours exposure
Description: as §1, §2

GIST882 = assay: cell proliferation, tumor derived cell lines; settings: Homo sapiens, Gastrointestinal stromal tumour (GIST), 72 or 96 hours exposure
Description: as §1, §2

MCF7 = assay: cell proliferation, tumor derived cell lines; settings: Homo sapiens, Breast, 72 or 96 hours exposure
Description: as §1, §2

BE = assay: cell proliferation, tumor derived cell lines; settings: Colon, 72 or 96 hours exposure
Description: as §1, §2

A549 = assay: cell proliferation, tumor derived cell lines; settings: Homo sapiens, Lung, 72 or 96 hours exposure
Description: as §1, §2

U266 = assay: cell proliferation, tumor derived cell lines; settings: Homo sapiens, U-266, Multiple myeloma (MM), 72 or 96 hours exposure
Description: as §1, §2

SKBr3 = assay: cell proliferation, tumor derived cell lines; settings: Homo sapiens, SK-BR-3, Breast, 72 or 96 hours exposure
Description: as §1, §2

A2780 = assay: cell proliferation, tumor derived cell lines; settings: Homo sapiens, Ovarian, 72 or 96 hours exposure
Description: as §1, §2

LXFA 297 = assay: clonogenic assay, human tumor xenografts in vitro; settings: Lung, non-small cell, LXFA 297, Adeno carcinoma, soft agar, read-out: IC50 (nM), colony formation
Description: (§3) The anticancer activity of 5-(2,4-Dihydroxy-5-isopropyl-phenyl)-4-(4-morpholin-4-ylmethyl-phenyl)-isoxazole-3-carboxylic acid ethylamide is evaluated in 30 human tumor xenografts in vitro using a clonogenic assay. In this assay, human cells derived from cancer patients are evaluated for the capacity of 5-(2,4-Dihydroxy-5-isopropyl-phenyl)-4-(4-morpholin-4-ylmethyl-phenyl)-isoxazole-3-carboxylic acid ethylamide to inhibit the formation of 3 dimensional colonies. […] The tumor xenografts which have never been cultured in cell culture plastic dishes are isolated from nude mice. Tumor cell suspensions are prepared and incubated in 24 well plates containing layers of soft agar. Under these conditions a special subpopulation of cells selectively grows to colonies. 5-(2,4-Dihydroxy-5-isopropyl-phenyl)-4-(4-morpholin-4-ylmethyl-phenyl)-isoxazole-3-carboxylic acid ethylamide was tested in 6 concentrations up to […]. The tumor test panel comprises 1 to 6 models of 10 different human tumor or cancer types, which were bladder cancer, colon, liver, non small cell lung (adeno, squamous epithelium and large cell), small cell lung, mammary, ovary, pancreatic, melanoma and pleuramesothelioma. Antitumor effects are recorded as inhibition of colony formation in relation to untreated controls. Further information on the method has been published (Burger et al., 2004; Fiebig et al., 2004; Smith et al., 2005).
(§4) The cells are continually exposed to 5-(2,4-Dihydroxy-5-isopropyl-phenyl)-4-(4-morpholin-4-ylmethyl-phenyl)-isoxazole-3-carboxylic acid ethylamide and colony formation is determined.

LXFA 526 = assay: clonogenic assay, human tumor xenografts in vitro; settings: Lung, non-small cell, LXFA 526, Adeno carcinoma, soft agar, read-out: IC50 (nM), colony formation
Description: as §3, §4

LXFA 629 = assay: clonogenic assay, human tumor xenografts in vitro; settings: Lung, non-small cell, LXFA 629, Adeno carcinoma, soft agar, read-out: IC50 (nM), colony formation
Description: as §3, §4

Question: Which IC50 (MDA-MB-231) does the source give for `CCNC(=O)c1noc(-c2cc(C(C)C)c(O)cc2O)c1-c1ccc(CN2CCOCC2)cc1` [AUY922, 5-(2,4-Dihydroxy-5-isopropyl-phenyl)-4-(4-morpholin-4-ylmethyl-phenyl)-isoxazole-3-carboxylic acid ethylamide] here?
Answer: 7.7 nM

Question: What about the IC50 (41M) of the same compound?
Answer: 3 nM

Question: What about the IC50 (Baf3) of the same compound?
Answer: 22.4 nM

Question: What about the IC50 (MDA-MB-468) of the same compound?
Answer: 3.5 nM

Question: What about the IC50 (A375) of the same compound?
Answer: 3 nM

Question: And the IC50 (RPMI-8226)?
Answer: 6.3 nM

Question: What about the IC50 (MAWI) of the same compound?
Answer: 50 nM

Question: What about the IC50 (SK-MEL-5) of the same compound?
Answer: 3 nM

Question: And the IC50 (NCI-H1299)?
Answer: 5.7 nM

Question: What about the IC50 (HCT116) of the same compound?
Answer: 16 nM

Question: What about the IC50 (T47D) of the same compound?
Answer: 2.6 nM

Question: What about the IC50 (RKO) of the same compound?
Answer: 3.1 nM

Question: What about the IC50 (RPMI8226) of the same compound?
Answer: 36.7 nM

Question: And the IC50 (GIST882)?
Answer: 6.2 nM

Question: What about the IC50 (MCF7) of the same compound?
Answer: 2.3 nM

Question: What about the IC50 (BE) of the same compound?
Answer: 2.8 nM

Question: What about the IC50 (A549) of the same compound?
Answer: 11.7 nM

Question: And the IC50 (U266)?
Answer: 23.3 nM

Question: And the IC50 (SKBr3)?
Answer: 2.3 nM

Question: What about the IC50 (A2780) of the same compound?
Answer: 6.1 nM

Question: And the IC50 (LXFA 297)?
Answer: 28 nM

Question: What about the IC50 (LXFA 526) of the same compound?
Answer: 5 nM

Question: And the IC50 (LXFA 629)?
Answer: 35 nM
